ChEMBL document CHEMBL1201862, “PubChem BioAssay data set” (2004)
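1) Cells in 96-well plates. 2) Compound, 48 h, 5 concentrations. 3) Linear interpolation between surrounding doses. 4) Unreached endpoint = highest concentration. GI50 is the concentration that inhibits growth by half.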 The source made the active and inactive calls. Rule as the data show it: active = GI50 up to about 1.1 µM and inactive = higher.

Experiments:
Test in all cases: NCI-60 cell line screen, 48 h
TK-10 = system: TK-10
OVCAR-8 = system: OVCAR-8
786-0 = system: 786-0
UACC-62 = system: UACC-62
SNB-75 = system: SNB-75
SF-295 = system: SF-295
EKVX = system: EKVX
SW-620 = system: SW-620
CAKI-1 = system: CAKI-1
M14 = system: M14
IGROV-1 = system: IGROV-1
NCI-H23 = system: NCI-H23
SNB-19 = system: SNB-19
HCT-15 = system: HCT-15
Malme-3M = system: Malme-3M
RXF 393 = system: RXF 393
HCT-116 = system: HCT-116

| SMILES | GI50 (TK-10) | GI50 (OVCAR-8) | GI50 (786-0) | GI50 (UACC-62) | GI50 (SNB-75) | GI50 (SF-295) | GI50 (EKVX) | GI50 (SW-620) | GI50 (CAKI-1) | GI50 (M14) | GI50 (IGROV-1) | GI50 (NCI-H23) | GI50 (SNB-19) | GI50 (HCT-15) [µM] | GI50 (Malme-3M) | GI50 (RXF 393) | GI50 (HCT-116) |
| --- | --- | --- | --- | --- | --- | --- | --- | --- | --- | --- | --- | --- | --- | --- | --- | --- | --- |
| CCOC(=O)C1(C)CCCCC(=O)N1 (stereo unspecified) | > 100 µM (inactive) | > 100 µM (inactive) | > 100 µM (inactive) | > 100 µM (inactive) | > 100 µM (inactive) | > 100 µM (inactive) | > 100 µM (inactive) | > 100 µM (inactive) | > 100 µM (inactive) | > 100 µM (inactive) | > 100 µM (inactive) | > 100 µM (inactive) | > 100 µM (inactive) | > 100 | > 100 µM (inactive) | > 100 µM (inactive) |  |
| CN(c1ccccc1)c1c(Cl)c(=O)oc2c1ccc1occc12 | > 100 µM (inactive) | > 100 µM (inactive) | > 100 µM (inactive) | 40.6 µM (inactive) | > 100 µM (inactive) | > 100 µM (inactive) | 33.3 µM (inactive) | > 100 µM (inactive) | 53.3 µM (inactive) | > 100 µM (inactive) |  | > 100 µM (inactive) | 59.7 µM (inactive) | 74 | > 100 µM (inactive) | > 100 µM (inactive) | 81.8 µM (inactive) |
| C=CCCn1nc(-c2ccccc2)oc1=O | > 100 µM (inactive) | > 100 µM (inactive) | > 100 µM (inactive) | > 100 µM (inactive) | > 100 µM (inactive) | > 100 µM (inactive) | > 100 µM (inactive) | > 100 µM (inactive) | > 100 µM (inactive) | > 100 µM (inactive) | > 100 µM (inactive) | > 100 µM (inactive) | > 100 µM (inactive) | > 100 | > 100 µM (inactive) | > 100 µM (inactive) | > 100 µM (inactive) |
| CN=[S+]([O-])(c1ccccc1)c1ccccc1 | > 100 µM (inactive) | > 100 µM (inactive) | > 100 µM (inactive) | > 100 µM (inactive) | 96.8 µM (inactive) | > 100 µM (inactive) | > 100 µM (inactive) | > 100 µM (inactive) | > 100 µM (inactive) | > 100 µM (inactive) | > 100 µM (inactive) | > 100 µM (inactive) | > 100 µM (inactive) | > 100 | > 100 µM (inactive) | > 100 µM (inactive) | > 100 µM (inactive) |
| CC1C2=CC=C(O2)C(C)(C)C2=CC=C(O2)C(C)(C)C2=CC=C(O2)C(C)(C)C2=CC=C1O2 | > 100 µM (inactive) | > 100 µM (inactive) | > 100 µM (inactive) |  |  | > 100 µM (inactive) | > 100 µM (inactive) | > 100 µM (inactive) | > 100 µM (inactive) |  | > 100 µM (inactive) | > 100 µM (inactive) | > 100 µM (inactive) | > 100 | > 100 µM (inactive) | > 100 µM (inactive) | > 100 µM (inactive) |
| O=C(Nc1nc2ncn(CCOC(=O)c3ccccc3)c2c(=S)[nH]1)c1ccccc1 | > 100 µM (inactive) | 45.6 µM (inactive) | 62.5 µM (inactive) | 56.2 µM (inactive) | 23.8 µM (inactive) | 45 µM (inactive) | > 100 µM (inactive) | > 100 µM (inactive) | > 100 µM (inactive) | > 100 µM (inactive) | > 100 µM (inactive) |  | 71.9 µM (inactive) | > 100 | 42.5 µM (inactive) | 18.6 µM (inactive) | > 100 µM (inactive) |
| CCOC(=O)N1Cc2ccoc2C1 | > 100 µM (inactive) | > 100 µM (inactive) | > 100 µM (inactive) | > 100 µM (inactive) | > 100 µM (inactive) | > 100 µM (inactive) | > 100 µM (inactive) | > 100 µM (inactive) |  | > 100 µM (inactive) | > 100 µM (inactive) | > 100 µM (inactive) | > 100 µM (inactive) | > 100 | > 100 µM (inactive) | > 100 µM (inactive) | > 100 µM (inactive) |
| CC(C)(CCl)NC(=O)c1cccc(C(=O)NC(C)(C)CCl)n1 | > 100 µM (inactive) |  | > 100 µM (inactive) |  | 92.3 µM (inactive) | > 100 µM (inactive) | > 100 µM (inactive) | > 100 µM (inactive) | > 100 µM (inactive) | > 100 µM (inactive) | > 100 µM (inactive) | > 100 µM (inactive) | > 100 µM (inactive) | > 100 | > 100 µM (inactive) | > 100 µM (inactive) | > 100 µM (inactive) |
| O=C(COc1ccccc1Cl)N1N=C(c2ccccc2)CC1(O)c1ccccc1 (stereo unspecified) | 17.1 µM (inactive) | 16.6 µM (inactive) | 17.3 µM (inactive) | 12.8 µM (inactive) | 47.6 µM (inactive) | 20.5 µM (inactive) |  | 26.5 µM (inactive) | 29 µM (inactive) | 17 µM (inactive) | 17.9 µM (inactive) | 12.1 µM (inactive) | 16.4 µM (inactive) | 12.9 | 14.9 µM (inactive) |  | 16.4 µM (inactive) |
| CCCCCCCCCCCCCCCCc1c(O)nc(NC#N)nc1C(=O)OC | > 25 µM (inactive) | > 25 µM (inactive) | > 25 µM (inactive) |  | > 25 µM (inactive) | > 25 µM (inactive) | > 25 µM (inactive) | > 25 µM (inactive) |  | > 25 µM (inactive) |  | > 25 µM (inactive) | > 25 µM (inactive) | > 25 | > 25 µM (inactive) | > 25 µM (inactive) | > 25 µM (inactive) |
| N#C/C(=C\c1ccc(O)cc1)C(N)=O | > 100 µM (inactive) | > 100 µM (inactive) | > 100 µM (inactive) | > 100 µM (inactive) |  | > 100 µM (inactive) | > 50.7 µM (inactive) | > 100 µM (inactive) | > 100 µM (inactive) | > 100 µM (inactive) | > 100 µM (inactive) | > 100 µM (inactive) | > 100 µM (inactive) | > 100 | > 100 µM (inactive) | 77.3 µM (inactive) | > 100 µM (inactive) |
| O=C(CCC(=O)N/N=C/c1ccccc1O)N/N=C/c1ccccc1O | 29.4 µM (inactive) | 92 µM (inactive) | > 100 µM (inactive) | 41.8 µM (inactive) | 12.9 µM (inactive) | 32.5 µM (inactive) | 20.9 µM (inactive) | > 100 µM (inactive) | > 100 µM (inactive) |  | 33.9 µM (inactive) | 94.6 µM (inactive) | 56.6 µM (inactive) | 51.4 | > 100 µM (inactive) | 16 µM (inactive) | 80.7 µM (inactive) |
| CC1=C(C)C(=O)c2c(cc3ccccn23)C1=O | 27 µM (inactive) | 22.8 µM (inactive) | 27.9 µM (inactive) | 15.6 µM (inactive) | 26.4 µM (inactive) | 17.1 µM (inactive) | 21.3 µM (inactive) | 19.2 µM (inactive) |  | 14.2 µM (inactive) | 24.5 µM (inactive) | 10.2 µM (inactive) | 15.3 µM (inactive) | 14.4 | 4.9 µM (inactive) | 14.7 µM (inactive) |  |
| CCOC(=O)C1(Cc2ccc3ccccc3c2)CCCCCN1 (stereo unspecified) | 54.1 µM (inactive) | 39.6 µM (inactive) | 17.3 µM (inactive) | 46.3 µM (inactive) | 2.78 µM (inactive) | 19 µM (inactive) | 69.5 µM (inactive) | 24.5 µM (inactive) | 9.23 µM (inactive) | 20 µM (inactive) | > 100 µM (inactive) | 30 µM (inactive) | 43.7 µM (inactive) | 18.7 | 16.5 µM (inactive) | 20.4 µM (inactive) |  |
| CCOC(=O)c1cn(CC)c2cc3c(cc2c1=O)SCS3 | > 100 µM (inactive) | > 100 µM (inactive) | > 100 µM (inactive) | > 100 µM (inactive) | 52.2 µM (inactive) | > 100 µM (inactive) | > 100 µM (inactive) | > 100 µM (inactive) | > 100 µM (inactive) | > 100 µM (inactive) | > 100 µM (inactive) | > 100 µM (inactive) | > 100 µM (inactive) | > 100 | > 100 µM (inactive) | > 100 µM (inactive) |  |
| Nc1ccc(C2=N/C(=C\c3cccc(N)c3)C(=O)O2)cc1 | > 100 µM (inactive) | > 100 µM (inactive) | > 100 µM (inactive) | > 100 µM (inactive) |  | > 100 µM (inactive) | > 100 µM (inactive) | > 100 µM (inactive) | > 100 µM (inactive) | > 100 µM (inactive) | > 100 µM (inactive) | > 100 µM (inactive) | > 100 µM (inactive) | > 100 | > 100 µM (inactive) | > 100 µM (inactive) |  |
| Cc1cc(C(O)CCCc2ccccc2)cc(C)c1O (stereo unspecified) | 31.6 µM (inactive) | 47.5 µM (inactive) | 40.6 µM (inactive) | 35.9 µM (inactive) | 16.4 µM (inactive) | 28.8 µM (inactive) | 20.5 µM (inactive) | 75.7 µM (inactive) |  | 56.1 µM (inactive) | 83.6 µM (inactive) | 39.8 µM (inactive) | 14.6 µM (inactive) | 45.9 | 18.9 µM (inactive) | 12 µM (inactive) |  |
| COc1ccccc1C(O)(c1ccccc1)C(O)(c1ccccc1)c1ccccc1OC (stereo unspecified) | > 100 µM (inactive) | > 100 µM (inactive) | > 100 µM (inactive) | > 100 µM (inactive) | 41.6 µM (inactive) | > 100 µM (inactive) | > 100 µM (inactive) | > 100 µM (inactive) |  | > 100 µM (inactive) | > 100 µM (inactive) | > 100 µM (inactive) | > 100 µM (inactive) | > 100 | > 100 µM (inactive) | > 100 µM (inactive) | > 100 µM (inactive) |
